From patent US10653139B2 (priority 2015, dated 2020)

What was measured:
[1] = Container atmosphere composition (GC-PID); assay type: physicochemical; conditions: after 20 days of storage, one or two devices, 24 ml pulegone, 65 L container, maintained 4/5 months
Method: To study the evolution of the spatial and temporal pulegone concentration, two containers with 1 and 2 release devices were used, similar to those described in 4.1. In each container, 24 ml of pulegone were impregnated in cotton.
The spatial concentration profiles along time were outlined by collecting over time samples of 500 μL from the container atmosphere, through the 6 sampling ports (detailed presentation in FIG. 1) using a 500 μL gas-tight Hamilton syringe.
Nitrogen was used as carrier gas at a constant 2 mL flow rate.

Acanthoscelides obtectus = experiment: Insecticidal activity test, vapour phase, bean; assay type: in vivo; conditions: 7.5 μL/mL
[2] = test system: fungi growth on dried grains; experiment: Antifungal in vivo test on dried grains, vapour phase; conditions: dried grains on PDA, 25 weeks
Text: 1.2 In vivo tests. The efficacy screening of the vapour of clove and pennyroyal essential oils (OE) and their main active components (MAC) eugenol, pulegone or their mixture was, carried out using a modified technique describe in Bluma, R., Landa, M. F., Etcheverry, M., 2009. Impact of volatile compounds generated by essential oils on Aspergillus section Flavi growth parameters and aflatoxin accumulation. J. Sci. Food Agric. 89 (9), 1473-1480. For the determination of volatile phase effect of essential oil on fungi growth different concentrations of essential oil were added to sterile filter papers (10 mm diameter, Whatman No. 1), namely, 0.5 μL/mL, 1.0 μL/mL, 2.5 μL/mL and 5.0 μL/mL and placed adherent to the inner surface of each Petri dishes lid (90 mm).
The grains were disinfected at surface as describe by Pitt & Hocking (Pitt, J. I., Hocking, A. D., 2009. Fungi and food spoilage. Springer, New York).
Ten dried grains were placed on Petri dishes with 20 mL of PDA medium with chloramphenicol (1%). These dishes were sealed immediately with parafilm and incubated at 28° C. Inhibition concentrations of volatile phase of essential oils were determined by periodic observation of fungi growth over 25 weeks. Control with no treated grains was also performed. For each concentration ten replicates were done.

Sitophilus zeamais = experiment: Insecticidal activity test, vapour phase, maize; assay type: in vivo; conditions: 18.8 μL/mL
Method: Maize grain with an average moisture content of 14±0.5% and ten unsexed adult insects aged from 1 to 4 days were used. The stock cultures of insects and the biological tests were carried out in a single incubator at 27° C. and 75±5% relative humidity.
Control with non-treated samples was also performed. Ten replicates per treatment and control were set up. All the replicates were kept in an incubator at 27° C. and 75%±5% relative humidity.
The progeny (F1) was evaluated monthly by common procedures after removing the parent adults. Insect mortality was assessed during five months (0.25, 1, 8, 134 and 149 days). The development index and the life cycle were also evaluated.

Fusarium culmorum [3] = experiment: Antifungal in vitro assay, direct plating; assay type: cell-based; conditions: observed over 25 weeks
Method: (§1) The screening of S. aromaticum and M. pulegium essential oils and their major components, eugenol and pulegone, respectively, was carried out using a direct plating technique in order to evaluate their ability to inhibit the growth of Aspergillus candidus, A. niger, Penicillium islandicum and Fusarium culmorum.
(§2) In vitro assays. For the determination of direct plating effect of essential oil on the growth of the fungi on different concentrations 0.5, 1.0, 2.5 and 5.0 μL/mL of essential oil were put on the surface of a Petri dish with 20 mL of potato dextrose agar medium (PDA). These Petri dishes were inoculated with a 5 mm diameter disk of fungi grown on PDA medium for 8 days at 28° C. This disk was placed on the agar surface and the dish sealed immediately with parafilm to prevent loss of essential oil to the atmosphere and incubated at 28° C. Inhibition concentrations of essential oil were determined by periodic evaluation of fungi growth during 25 weeks. For each concentration, four replicate dishes were used.

Penicillium islandicum [4] = experiment: Antifungal in vitro assay, direct plating; assay type: cell-based; conditions: observed over 25 weeks
Method: as §1, §2

Aspergillus niger [5] = experiment: Antifungal in vitro assay, direct plating; assay type: cell-based; conditions: observed over 25 weeks
Method: as §1, §2

Aspergillus candidus [6] = experiment: Antifungal in vitro assay, direct plating; assay type: cell-based; conditions: observed over 25 weeks
Method: as §1, §2

Fusarium culmorum [7] = experiment: Antifungal in vitro assay, volatile (vapour) phase; assay type: cell-based; conditions: observed over 25 weeks
Method: (§3) Petri dishes were inoculated with a 5 mm diameter disk of fungi grown on PDA medium for 8 days at 28° C. This disk was placed on the agar surface and the dish sealed immediately with parafilm and incubated at 28° C. Inhibition concentrations of volatile phase of essential oils were determined by a periodic evaluation the fungi growth over 25 weeks. In the control, equal amounts of sterilized water was added to filter papers and placed onto the lid of Petri dishes. For each concentration, four replicate Petri dishes were used. The absence of growth was recorded during 25 weeks.

Penicillium islandicum [8] = experiment: Antifungal in vitro assay, volatile (vapour) phase; assay type: cell-based; conditions: observed over 25 weeks
Method: as §3

Aspergillus niger [9] = experiment: Antifungal in vitro assay, volatile (vapour) phase; assay type: cell-based; conditions: observed over 25 weeks
Method: as §3

Aspergillus candidus [10] = experiment: Antifungal in vitro assay, volatile (vapour) phase; assay type: cell-based; conditions: observed over 25 weeks
Method: as §3

grain maize germination = experiment: In vitro germination assay of treated seeds; conditions: 3.5 months treatments, in vitro after 4 days (FIG. 2A)
Method: (§4) FIG. 2—Represents the effect of 3.5 months treatments on grain maize germination: (A) in vitro after 4 days and (B) in vivo 17 days after sowing (DAS).
In an embodiment, for the in vitro germination assay were used 10 seeds and 5 ml of sterile water per petri dish and the incubation temperature was ±25° C.

[11] = test system: plants produced from treated seeds; experiment: In vivo effects on plants from treated seeds (pots in greenhouse); parameters: species or system maize
Method: as §4
In an embodiment, the assay was performed in pots in a greenhouse with environmental monitoring (temperature, humidity and PAR intensity) and controlled irrigation. For each treatment, 6 pots with 2 plants each were used. […] No relevant differences in phenotypic (germination, chlorophyll and height) and physiological parameters (photosynthesis, stomatal conductance and transpiration (FIG. 3) were found.

SMILES: CC(C)=C1CC[C@@H](C)CC1=O [Pulegone, pulegone]
- stabilized concentration level in the container atmosphere [1]: 10 % of the standard pulegone saturation value
- Insect Mortality (%) (Acanthoscelides obtectus; 0.25 days): 0%
- Insect Mortality (%) (Acanthoscelides obtectus; 1 day (control 29)): 100%
- Insect Mortality (%) (Acanthoscelides obtectus; 8 days (control 100)): 100%
- Insect Mortality (%) (Acanthoscelides obtectus; 134 days (control 100)): 100%
- Insect Mortality (%) (Acanthoscelides obtectus; 149 days (control 100)): 100%
- Time (weeks), period of storage without any fungal contamination, in vivo ([2]; 0.5 μL/mL): 2 weeks
- Time (weeks), period of storage without any fungal contamination, in vivo ([2]; 2.5 μL/mL): 20 weeks
- Time (weeks), period of storage without any fungal contamination, in vivo ([2]; 5.0 μL/mL): 25 weeks
- Insect Mortality (%) (Sitophilus zeamais; 0.25 days): 46%
- Insect Mortality (%) (Sitophilus zeamais; 1 day): 100%
- Insect Mortality (%) (Sitophilus zeamais; 8 days): 100%
- Insect Mortality (%) (Sitophilus zeamais; 134 days): 100%
- Insect Mortality (%) (Sitophilus zeamais; 149 days): 100%

SMILES: C=CCc1ccc(O)c(OC)c1 [Eugenol, eugenol]
- Time (weeks), period of storage without any fungal contamination (Fusarium culmorum [3]; 0.5 μL/mL): 25 weeks
- Time (weeks), period of storage without any fungal contamination (Fusarium culmorum [3]; 1.0 μL/mL): 25 weeks
- Time (weeks), period of storage without any fungal contamination (Fusarium culmorum [3]; 2.5 μL/mL): 25 weeks
- Time (weeks), period of storage without any fungal contamination (Fusarium culmorum [3]; 5.0 μL/mL): 25 weeks
- Time (weeks), period of storage without any fungal contamination (Penicillium islandicum [4]; 0.5 μL/mL): 25 weeks
- Time (weeks), period of storage without any fungal contamination (Penicillium islandicum [4]; 1.0 μL/mL): 25 weeks
- Time (weeks), period of storage without any fungal contamination (Penicillium islandicum [4]; 2.5 μL/mL): 25 weeks
- Time (weeks), period of storage without any fungal contamination (Penicillium islandicum [4]; 5.0 μL/mL): 25 weeks
- Time (weeks), period of storage without any fungal contamination (Aspergillus niger [5]; 0.5 μL/mL): 25 weeks
- Time (weeks), period of storage without any fungal contamination (Aspergillus niger [5]; 1.0 μL/mL): 25 weeks
- Time (weeks), period of storage without any fungal contamination (Aspergillus niger [5]; 2.5 μL/mL): 25 weeks
- Time (weeks), period of storage without any fungal contamination (Aspergillus niger [5]; 5.0 μL/mL): 25 weeks
- Time (weeks), period of storage without any fungal contamination (Aspergillus candidus [6]; 0.5 μL/mL): 25 weeks
- Time (weeks), period of storage without any fungal contamination (Aspergillus candidus [6]; 1.0 μL/mL): 25 weeks
- Time (weeks), period of storage without any fungal contamination (Aspergillus candidus [6]; 2.5 μL/mL): 25 weeks
- Time (weeks), period of storage without any fungal contamination (Aspergillus candidus [6]; 5.0 μL/mL): 25 weeks
- Time (weeks), period of storage without any fungal contamination (Fusarium culmorum [7]; 0.5 μL/mL): 25 weeks
- Time (weeks), period of storage without any fungal contamination (Fusarium culmorum [7]; 1.0 μL/mL): 25 weeks
- Time (weeks), period of storage without any fungal contamination (Fusarium culmorum [7]; 2.5 μL/mL): 25 weeks
- Time (weeks), period of storage without any fungal contamination (Fusarium culmorum [7]; 5.0 μL/mL): 25 weeks
- Time (weeks), period of storage without any fungal contamination (Penicillium islandicum [8]; 0.5 μL/mL): 25 weeks
- Time (weeks), period of storage without any fungal contamination (Penicillium islandicum [8]; 1.0 μL/mL): 25 weeks
- Time (weeks), period of storage without any fungal contamination (Penicillium islandicum [8]; 2.5 μL/mL): 25 weeks
- Time (weeks), period of storage without any fungal contamination (Penicillium islandicum [8]; 5.0 μL/mL): 25 weeks
- Time (weeks), period of storage without any fungal contamination (Aspergillus niger [9]; 0.5 μL/mL): 23 weeks
- Time (weeks), period of storage without any fungal contamination (Aspergillus niger [9]; 1.0 μL/mL): 25 weeks
- Time (weeks), period of storage without any fungal contamination (Aspergillus niger [9]; 2.5 μL/mL): 25 weeks
- Time (weeks), period of storage without any fungal contamination (Aspergillus niger [9]; 5.0 μL/mL): 25 weeks
- Time (weeks), period of storage without any fungal contamination (Aspergillus candidus [10]; 0.5 μL/mL): 21 weeks
- Time (weeks), period of storage without any fungal contamination (Aspergillus candidus [10]; 1.0 μL/mL): 25 weeks
- Time (weeks), period of storage without any fungal contamination (Aspergillus candidus [10]; 2.5 μL/mL): 25 weeks
- Time (weeks), period of storage without any fungal contamination (Aspergillus candidus [10]; 5.0 μL/mL): 25 weeks
- Insect Mortality (%) (Acanthoscelides obtectus; 0.25 days): 0%
- Insect Mortality (%) (Acanthoscelides obtectus; 1 day (control 29)): 70%
- Insect Mortality (%) (Acanthoscelides obtectus; 8 days (control 100)): 100%
- Insect Mortality (%) (Acanthoscelides obtectus; 134 days (control 100)): 100%
- Insect Mortality (%) (Acanthoscelides obtectus; 149 days (control 100)): 100%
- Time (weeks), period of storage without any fungal contamination, in vivo ([2]; 0.5 μL/mL): 2 weeks
- Time (weeks), period of storage without any fungal contamination, in vivo ([2]; 2.5 μL/mL): 25 weeks
- Time (weeks), period of storage without any fungal contamination, in vivo ([2]; 5.0 μL/mL): 25 weeks

SMILES: C=C(C)[C@H]1CC=C(C)CC1 [Limonene, reference compound]
- seed germination capacity, in vitro (grain maize germination): significant decrease
- Insect Mortality (%) (Acanthoscelides obtectus; 0.25 days): 0%
- Insect Mortality (%) (Acanthoscelides obtectus; 1 day (control 29)): 100%
- Insect Mortality (%) (Acanthoscelides obtectus; 8 days (control 100)): 100%
- Insect Mortality (%) (Acanthoscelides obtectus; 134 days (control 100)): 100%
- Insect Mortality (%) (Acanthoscelides obtectus; 149 days (control 100)): 100%
- height of plants relatively to the control ([11]; plants from treated seeds (FIG. 4A)): small variation
- decrease in total chlorophyll content related to the control ([11]; plants obtained from treated grains): 1.9%
- germination, in vivo ([11]; pots in greenhouse, figure printed in brackets after 'really affected the germination'): 49.1%
